Reference: patent publication US6433188B1, “Fused heteroaromatic glucokinase activators” (priority 2000, dated 2002)

| Structure (SMILES) | melting point |
| --- | --- |
| CS(=O)(=O)c1ccc(C(CC2CCCC2)C(=O)Nc2nc3ccccc3o2)cc1C#N (stereo not drawn) [Example 27, N-Benzoxazol-2-yl-2-(3-cyano-4-methanesulfonyl-phenyl)-3-cyclopentyl-propionamide] | 108 to 112 °C |
| CS(=O)(=O)c1ccc(C(CC2CCCC2)C(=O)Nc2ccc3ccccc3n2)cc1[N+](=O)[O-] (stereo not drawn) [Example 35, 3-Cyclopentyl-2-(4-methanesulfonyl-3-nitro-phenyl)-N-quinolin-2-yl-propionamide] | 102 to 106 °C |
| CS(=O)(=O)c1ccc(C(CC2CCCC2)C(=O)Nc2nc3ccccc3s2)cc1[N+](=O)[O-] (stereo not drawn) [Example 32, N-Benzothiazol-2-yl-3-cyclopentyl-2-(4-methanesulfonyl-3-nitro-phenyl)-propionamide] | 108 to 113 °C |
| CS(=O)(=O)c1ccc(C(CC2CCCC2)C(=O)Nc2nc3ccccc3s2)cc1C#N (stereo not drawn) [Example 26, N-Benzothiazol-2-yl-2-(3-cyano-4-methanesulfonyl-phenyl)-3-cyclopentyl-propionamide] | 115 to 118 °C |
| CS(=O)(=O)c1ccc([C@@H](CC2CCCC2)C(=O)Nc2nc3ccccc3s2)cc1 [Example 14, N-Benzothiazol-2-yl-3-cyclopentyl-2(R)-(4-methanesulfonyl-phenyl)-propionamide] | 100 to 105 °C |
| CS(=O)(=O)c1ccc(C(CC2CCCC2)C(=O)Nc2ccc3ccccc3n2)cc1C#N (stereo not drawn) [Example 29, 2-(3-Cyano-4-methanesulfonyl-phenyl)-3-cyclopentyl-N-quinolin-2-yl-propionamide] | 95 to 99 °C |
| CS(=O)(=O)c1ccc([C@@H](CC2CCCC2)C(=O)Nc2nc3ccccc3[nH]2)cc1Cl [Example 21, N-(1H-Benzimidazol-2-yl)-2(R)-(3-chloro-4-methanesulfonyl-phenyl)-3-cyclopentyl-propionamide] | > 215 °C |
| CS(=O)(=O)c1ccc(C(CC2CCCC2)C(=O)Nc2ccc3ccccc3n2)cc1Br (stereo not drawn) [Example 25, 2-(3-Bromo-4-methanesulfonyl-phenyl)-3-cyclopentyl-N-quinolin-2-yl-propionamide] | 95 to 100 °C |
| CS(=O)(=O)c1ccc(C(CC2CCCC2)C(=O)Nc2ccc3ccccc3n2)cc1C(F)(F)F (stereo not drawn) [Example 30, 3-Cyclopentyl-2-(4-methanesulfonyl-3-trifluoromethyl-phenyl)-N-quinolin-2-yl-propionamide] | 90 to 95 °C |
| CS(=O)(=O)c1ccc(C(CC2CCCC2)C(=O)Nc2nc3ccccc3[nH]2)cc1[N+](=O)[O-] (stereo not drawn) [Example 34, N-(1H-Benzimidazol-2-yl)-3-cyclopentyl-2-(4-methanesulfonyl-3-nitro-phenyl)-propionamide] | 113 to 117 °C |
| CS(=O)(=O)c1ccc([C@@H](CC2CCCC2)C(=O)Nc2nc3ccccc3[nH]2)cc1 [Example 13, N-(1H-Benzimidazol-2-yl)-3-cyclopentyl-2(R)-(4-methanesulfonyl-phenyl)-propionamide] | 230 to 232 °C |
| CS(=O)(=O)c1ccc(C(CC2CCCC2)C(=O)Nc2nc3ccccc3o2)cc1[N+](=O)[O-] (stereo not drawn) [Example 33, N-Benzoxazol-2-yl-3-cyclopentyl-2-(4-methanesulfonyl-3-nitro-phenyl)-propionamide] | 106 to 111 °C |
| CS(=O)(=O)c1ccc(C(CC2CCCC2)C(=O)Nc2nc3ccccc3s2)cc1 (stereo not drawn) [Example 12(A), N-Benzothiazol-2-yl-3-cyclopentyl-2-(4-methanesulfonyl-phenyl)-propionamide] | 206 to 209 °C |
| CS(=O)(=O)c1ccc(C(CC2CCCC2)C(=O)Nc2nc3ccccc3[nH]2)cc1C#N (stereo not drawn) [Example 28, N-(1H-Benzimidazol-2-yl)-2-(3-cyano-4-methanesulfonyl-phenyl)-3-cyclopentyl-propionamide] | 148 to 152 °C |
| CS(=O)(=O)c1ccc(C(CC2CCCC2)C(=O)Nc2nc3ccccc3[nH]2)cc1Br (stereo not drawn) [Example 24(A), N-(1H-Benzimidazol-2-yl)-2-(3-bromo-4-methanesulfonyl-phenyl)-3-cyclopentyl-propionamide] | > 220 °C |

Second part, the compound after the results:

| melting point | Structure (SMILES) |
| --- | --- |
| 105 to 110 °C | CS(=O)(=O)c1ccc(C(CC2CCCC2)C(=O)Nc2nc3ccccc3s2)cc1C(F)(F)F (stereo not drawn) [Example 31(A), N-Benzothiazol-2-yl-3-cyclopentyl-2-(4-methanesulfonyl-3-trifluoromethyl-phenyl)-propionamide] |
| 172 to 173 °C | O=C(Nc1ccc2ccccc2n1)C(CC1CCCC1)c1ccc(Cl)c(Cl)c1 (stereo not drawn) [Example 10, 3-Cyclopentyl-2-(3,4-dichloro-phenyl)-N-quinolin-2-yl-propionamide] |
| 131 to 133 °C | O=C(Nc1nc2ccc(F)cc2s1)C(CC1CCCC1)c1ccc(Cl)c(Cl)c1 (stereo not drawn) [Example 4, 3-Cyclopentyl-2-(3,4-dichloro-phenyl)-N-(6-fluoro-benzothiazol-2-yl)-propionamide] |
| 104 to 105 °C | O=C(Nc1nc2ccccc2s1)C(CC1CCCC1)c1ccc(Cl)c(Cl)c1 (stereo not drawn) [Example 2, N-Benzothiazol-2-yl-3-cyclopentyl-2-(3,4-dichloro-phenyl)-propionamide] |
| 193.4 to 196.8 °C | O=C(Nc1nc2ccccc2[nH]1)C(CC1CCCC1)c1ccc(Cl)c(Cl)c1 (stereo not drawn) [Example 8, N-(1H-Benzimidazol-2-yl)-3-cyclopentyl-2-(3,4-dichloro-phenyl)-propionamide] |
| 170 to 171 °C | O=C(Nc1nc2c(s1)CCCC2)C(CC1CCCC1)c1ccc(Cl)c(Cl)c1 (stereo not drawn) [Example 1, 3-Cyclopentyl-2-(3,4-dichloro-phenyl)-N-(4,5,6,7-tetrahydro-benzothiazol-2-yl)-propionamide] |
